Drawing on patent publication US8338367B2, “Fused heteroaryl diamide compounds useful as MMP-13 inhibitors” (Boehringer Ingelheim International GmbH, priority 2008, dated 2012), this text covers IC50 for nine molecules.

Each structure is given as a SMILES string.

For this assay, the target named is MMP13 (Homo sapiens, UniProt P45452). Kind of assay: EnzoLyte 520 Generic MMP Assay Kit (FRET peptide substrate), MMP-13 inhibition. The class given is biochemical. The text has this: The EnzoLyte™ 520 Generic MMP Assay Kit (AnaSpec Inc.) can detect the activity of several MMPs including MMP-1, 2, 3, 7, 8, 9, 13, and 14. This kit uses a 5-FAM/QXL™ 520 fluorescence resonance energy transfer (FRET) peptide as an MMP substrate. In the intact FRET peptide, the fluorescence of 5-FAM is quenched by QXL™ 520. Upon cleavage into two separate fragments by MMPs, the fluorescence of 5-FAM is recovered, and can be monitored at excitation/emission wavelengths=490 nm/520 nm. The assays are performed in a convenient 96-well or 384-well microplate format.
In the case of `CNC(=O)[C@@H](NC(=O)c1ccc(-c2ccc3cc[nH]c3c2)o1)C1CCCCC1` [5-(1H-Indol-6-yl)-furan-2-carboxylic acid ((S)-cyclohexyl-methylcarbamoyl-methyl)-amide], the IC50 worked out at 0.29 µM.
As to `CNC(=O)[C@@H](NC(=O)c1ccc(-c2cc3[nH]ccc3cn2)o1)C1CCCCC1` [5-(1H-Pyrrolo[3,2-c]pyridin-6-yl)-furan-2-carboxylic acid ((S)-cyclohexyl-methylcarbamoyl-methyl)-amide], the 50% inhibitory concentration (IC50) is 0.103 µM.
As for `CNC(=O)[C@@H](NC(=O)c1ccc(-c2ccc3nc(Cc4ccncc4)[nH]c3c2)o1)C1CCCCC1` [5-(2-Pyridin-4-ylmethyl-3H-benzimidazol-5-yl)-furan-2-carboxylic acid ((S)-cyclohexyl-methylcarbamoyl-methyl)-amide], the concentration for half-maximal inhibition (IC50) came out at 0.034 µM.
The molecule `CNC(=O)[C@@H](NC(=O)c1ccc(-c2ccc3nc[nH]c3c2)o1)C1CCCCC1` [5-(3H-Benzimidazol-5-yl)-furan-2-carboxylic acid ((S)-cyclohexyl-methylcarbamoyl-methyl)-amide] registered an IC50 of 0.27 µM.
`CNC(=O)[C@@H](NC(=O)c1ccc(-c2ccc3cc(C(=O)N4CCS(=O)(=O)CC4)[nH]c3c2)o1)C(C)C` [5-[2-(1,1-Dioxo-λ^6-1-thiomorpholine-4-carbonyl)-1H-indol-6-yl]-furan-2-carboxylic acid ((S)-2-methyl-1-methylcarbamoyl-propyl)-amide] displayed an IC50 of 0.2 µM.
For `CNC(=O)[C@@H](NC(=O)c1ccc(-c2ccc3cc(C(=O)N4CC(C)OC(C)C4)[nH]c3c2)o1)C(C)C` (stereo partly drawn) [5-[2-(2,6-Dimethyl-morpholine-4-carbonyl)-1H-indol-6-yl]-furan-2-carboxylic acid ((S)-2-methyl-1-methylcarbamoyl-propyl)-amide] the value was 0.065 µM.
`CNC(=O)[C@@H](NC(=O)c1ccc(-c2ccc3cc(C(=O)N4CCN(C)CC4)[nH]c3c2)o1)C(C)C` [5-[2-(4-Methyl-piperazine-1-carbonyl)-1H-indol-6-yl]-furan-2-carboxylic acid ((S)-2-methyl-1-methylcarbamoyl-propyl)-amide] showed an IC50 of 0.3 µM.
`CNC(=O)[C@@H](NC(=O)c1ccc(-c2ccc3cc(C(=O)N4CCOCC4)[nH]c3c2)o1)C(C)C` [5-[2-(Morpholine-4-carbonyl)-1H-indol-6-yl]-furan-2-carboxylic acid ((S)-2-methyl-1-methylcarbamoyl-propyl)-amide]: it took 0.415 µM to reach half-maximal inhibition (IC50).
For `CNC(=O)[C@@H](NC(=O)c1ccc(-c2ccc3cc(C(=O)N4CCOCC4)[nH]c3c2)o1)C1CCCCC1` [5-[2-(Morpholine-4-carbonyl)-1H-indol-6-yl]-furan-2-carboxylic acid ((S)-cyclohexyl-methylcarbamoyl-methyl)-amide] the value was 0.34 µM.

By IC50 is commonly meant the concentration that gives 50% inhibition. A high value points to weaker potency.
